T1: recEmTDH (Echinococcus multilocularis, UniProt A0A068Y017)
T1 construct: gene EmuJ_000511900; E. coli BL21; 979 bp insert from metacestode vesicle cDNA
T1 sequence (A0A068Y017 31-362): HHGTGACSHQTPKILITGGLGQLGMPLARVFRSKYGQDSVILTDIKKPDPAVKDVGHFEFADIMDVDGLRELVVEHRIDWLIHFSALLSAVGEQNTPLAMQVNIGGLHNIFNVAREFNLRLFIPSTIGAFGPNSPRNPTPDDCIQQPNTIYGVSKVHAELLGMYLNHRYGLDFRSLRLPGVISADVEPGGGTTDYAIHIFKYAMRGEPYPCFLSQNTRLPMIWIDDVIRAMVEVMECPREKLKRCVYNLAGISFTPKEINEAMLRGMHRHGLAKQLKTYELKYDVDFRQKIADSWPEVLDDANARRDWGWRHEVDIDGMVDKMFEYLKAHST


Experiments:
[1] = molecular target: T2, recMmTDH (Mus musculus, UniProt Q8K3F7); test: NADH formation, absorbance at […] nm; assay type: biochemical; conditions: 0-16 mM L-Thr, 10 mM NAD+; pH 8.4; 37 °C
T2 construct: gene Tdh; predicted mitochondrial transfer peptide removed; E. coli BL21; synthetic gene, 991 bp insert

[2] = molecular target: T2, recMmTDH; test: NADH formation, absorbance at […] nm, relative to DMSO control; assay type: biochemical; conditions: 20 μM compound; 2 mM L-Thr, 3 mM NAD+; pH 8.4; 37 °C
[3] = molecular target: T1, recEmTDH; test: as above; assay type: biochemical; conditions: read-out: residual activity at 20 μM
[4] = substrate: C[C@@H](O)[C@H](N)C(=O)O; test: purified protein; assay type: biochemical, Echinococcus multilocularis; conditions: 2 mM NAD+, 80 mM Tris-HCl pH 8.4, 37 °C
[5] = substrate: NC(=O)c1ccc[n+]([C@@H]2O[C@H](COP(=O)(O)OP(=O)(O)OC[C@H]3O[C@@H](n4cnc5c(N)ncnc54)[C@H](O)[C@@H]3O)[C@@H](O)[C@H]2O)c1; test: purified protein; assay type: biochemical, Echinococcus multilocularis; conditions: 16 mM L-Thr, 80 mM Tris-HCl pH 8.4, 37 °C, varied: cofactor

T2 sequence (Q8K3F7 46-373): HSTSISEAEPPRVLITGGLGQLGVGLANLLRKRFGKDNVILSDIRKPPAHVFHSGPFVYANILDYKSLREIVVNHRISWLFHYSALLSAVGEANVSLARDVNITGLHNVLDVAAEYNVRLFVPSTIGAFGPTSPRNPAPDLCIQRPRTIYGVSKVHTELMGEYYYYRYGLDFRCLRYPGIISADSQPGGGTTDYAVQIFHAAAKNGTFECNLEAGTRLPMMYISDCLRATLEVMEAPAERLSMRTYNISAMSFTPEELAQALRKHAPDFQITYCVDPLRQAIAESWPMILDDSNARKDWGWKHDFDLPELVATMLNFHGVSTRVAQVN

| Molecule | residual activity at 20 μM [2] | remaining activity at 20 µM [3] | further results |
| --- | --- | --- | --- |
| C[C@@H](O)[C@H](N)C(=O)O [L-Thr] | – | – | NADH formation, absorbance at 340 nm [1]: we recombinantly expressed MmTDH (S5 File) and this protein was also enzymatically active |
| O=C(NCc1ccccc1)c1ccc2c(=O)n(-c3cccc(C(F)(F)F)c3)c(=S)[nH]c2c1 [QC1] | All tested compounds, except QC4, inhibited recMmTDH activity | – | – |
| COc1ccc(NC(=O)c2ccc3c(=O)n(-c4cc(C(F)(F)F)ccc4Cl)c(=S)[nH]c3c2)cc1OC [QC2] | All tested compounds, except QC4, inhibited recMmTDH activity | 81.3 ± 1.8% | – |
| COc1ccccc1CNC(=O)c1ccc2c(=O)n(-c3cccc(C(F)(F)F)c3)c(=S)[nH]c2c1 [QC3] | All tested compounds, except QC4, inhibited recMmTDH activity | – | – |
| O=C(NCCCN1CCCC1=O)c1ccc2c(=O)n(-c3cccc(C(F)(F)F)c3)c(=S)[nH]c2c1 [QC5] | All tested compounds, except QC4, inhibited recMmTDH activity | – | – |
| CN(Cc1ccccc1)C(=O)c1ccc2c(=O)n(-c3cccc(C(F)(F)F)c3)c(=S)[nH]c2c1 [QC6] | All tested compounds, except QC4, inhibited recMmTDH activity | – | – |
| O=C(O)c1ccc2c(=O)n(-c3cccc(C(F)(F)F)c3)c(=S)[nH]c2c1 [QC7] | All tested compounds, except QC4, inhibited recMmTDH activity | – | – |
| CCN(CC)C(=S)SSC(=S)N(CC)CC [disulfiram] | All tested compounds, except QC4, inhibited recMmTDH activity | 41.2 ± 0.8% | – |
| O=c1c(O)c(-c2cc(O)c(O)c(O)c2)oc2cc(O)cc(O)c12 [myricetin] | All tested compounds, except QC4, inhibited recMmTDH activity | 74.8 ± 1.7% | – |
| O=c1c(O)c(-c2ccc(O)c(O)c2)oc2cc(O)cc(O)c12 [quercetin] | All tested compounds, except QC4, inhibited recMmTDH activity | 85.5 ± 2.8% | – |
| C[n+]1cc2c3c(ccc2c2ccc4cc5c(cc4c21)OCO5)OCO3 [sanguinarine] | All tested compounds, except QC4, inhibited recMmTDH activity | 64 ± 4% | – |
| recEmTDH (Echinococcus multilocularis) (protein, E. coli BL21; 979 bp insert from metacestode vesicle cDNA) HHGTGACSHQTPKILITGGLGQLGMPLARVFRSKYGQDSVILTDIKKPDPAVKDVGHFEFADIMDVDGLRELVVEHRIDWLIHFSALLSAVGEQNTPLAMQVNIGGLHNIFNVAREFNLRLFIPSTIGAFGPNSPRNPTPDDCIQQPNTIYGVSKVHAELLGMYLNHRYGLDFRSLRLPGVISADVEPGGGTTDYAIHIFKYAMRGEPYPCFLSQNTRLPMIWIDDVIRAMVEVMECPREKLKRCVYNLAGISFTPKEINEAMLRGMHRHGLAKQLKTYELKYDVDFRQKIADSWPEVLDDANARRDWGWRHEVDIDGMVDKMFEYLKAHST | – | – | Km [4]: 8.8 ± 0.05 mM; Km [5]: 0.8 ± 0.01 mM |
